According to the supplement of paper PMC10307832:

Legend:
Assay in all cases: relative viability (nuclei count vs DMSO), 5 days (fraction); higher = more cells survive
NCI-H2087 = test system: NCI-H2087
Outline: (§1)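 Relative viability divides the nuclei count in treated wells by that in vehicle wells. Lung cancer cell lines were seeded in 1536-well plates, dosed by pin tool the next day, and fixed and stained after 5 days in one step with final 0.05% Triton X-100, 1% formaldehyde and 1 ug/ml Hoechst. Dosing was a single drug or a fixed anchor-drug dose plus five library-drug doses (not always all listed) in √10 steps, and values are medians of duplicate plates imaged at 4×.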

NCI-H1793 = test system: NCI-H1793
Outline: as §1

PC-3 [JPC-3] = test system: PC-3 [JPC-3]
Outline: as §1

NCI-H1651 = test system: NCI-H1651
Outline: as §1

HCC-366 = test system: HCC-366
Outline: as §1

NCI-H1395 = test system: NCI-H1395
Outline: as §1

ABC-1 = test system: ABC-1
Outline: as §1

NCI-H2405 = test system: NCI-H2405
Outline: as §1

NCI-H2228 = test system: NCI-H2228
Outline: as §1

LU99A = test system: LU99A
Outline: as §1

HCC-78 = test system: HCC-78
Outline: as §1

LOU-NH91 = test system: LOU-NH91
Outline: as §1

NCI-H3122 = test system: NCI-H3122
Outline: as §1

NCI-H1944 = test system: NCI-H1944
Outline: as §1

UMC-11 = test system: UMC-11
Outline: as §1

CAL-12T = test system: CAL-12T
Outline: as §1

RERF-LC-KJ = test system: RERF-LC-KJ
Outline: as §1

NCI-H460 = test system: NCI-H460
Outline: as §1

LC-2-ad = test system: LC-2-ad
Outline: as §1

NCI-H1755 = test system: NCI-H1755
Outline: as §1

## COc1nc(C)cnc1NS(=O)(=O)c1cccnc1-c1ccc(-c2nnco2)cc1 [Zibotentan] + C[C@]1(O)C[C@@H](c2nc(-c3ccc4ccc(-c5ccccc5)nc4c3)c3c(N)nccn32)C1 [Linsitinib] (partner 1 µM)
NCI-H2087; first compound 0.08 µM
  relative viability: 1.2
NCI-H2087; first compound 0.253 µM
  relative viability: 0.971
NCI-H2087; first compound 0.8 µM
  relative viability: 1.07
NCI-H2087; first compound 2.53 µM
  relative viability: 0.914
NCI-H1793; first compound 0.08 µM
  relative viability: 0.811
NCI-H1793; first compound 0.253 µM
  relative viability: 0.824
NCI-H1793; first compound 0.8 µM
  relative viability: 1.05
NCI-H1793; first compound 2.53 µM
  relative viability: 1.01
PC-3 [JPC-3]; first compound 0.08 µM
  relative viability: 0.931
PC-3 [JPC-3]; first compound 0.253 µM
  relative viability: 0.964
PC-3 [JPC-3]; first compound 0.8 µM
  relative viability: 1.01
PC-3 [JPC-3]; first compound 2.53 µM
  relative viability: 0.98
NCI-H1651; first compound 0.08 µM
  relative viability: 1.17
NCI-H1651; first compound 0.253 µM
  relative viability: 0.949
NCI-H1651; first compound 0.8 µM
  relative viability: 0.92
NCI-H1651; first compound 2.53 µM
  relative viability: 0.849
HCC-366; first compound 0.08 µM
  relative viability: 0.7
HCC-366; first compound 0.253 µM
  relative viability: 0.586
HCC-366; first compound 0.8 µM
  relative viability: 0.518
HCC-366; first compound 2.53 µM
  relative viability: 0.794
NCI-H1395; first compound 0.08 µM
  relative viability: 1.39
NCI-H1395; first compound 0.253 µM
  relative viability: 1.07
NCI-H1395; first compound 0.8 µM
  relative viability: 1.05
NCI-H1395; first compound 2.53 µM
  relative viability: 1.08
ABC-1; first compound 0.08 µM
  relative viability: 0.775
ABC-1; first compound 0.253 µM
  relative viability: 0.803
ABC-1; first compound 0.8 µM
  relative viability: 1.01
ABC-1; first compound 2.53 µM
  relative viability: 0.822
NCI-H2405; first compound 0.08 µM
  relative viability: 1.07
NCI-H2405; first compound 0.253 µM
  relative viability: 0.796
NCI-H2405; first compound 0.8 µM
  relative viability: 0.908
NCI-H2405; first compound 2.53 µM
  relative viability: 0.959
NCI-H2228; first compound 0.08 µM
  relative viability: 0.722
NCI-H2228; first compound 0.253 µM
  relative viability: 0.467
NCI-H2228; first compound 0.8 µM
  relative viability: 0.903
NCI-H2228; first compound 2.53 µM
  relative viability: 0.728
LU99A; first compound 0.08 µM
  relative viability: 0.602
LU99A; first compound 0.253 µM
  relative viability: 0.528
LU99A; first compound 0.8 µM
  relative viability: 0.521
LU99A; first compound 2.53 µM
  relative viability: 0.602
HCC-78; first compound 0.08 µM
  relative viability: 0.548
HCC-78; first compound 0.253 µM
  relative viability: 0.503
HCC-78; first compound 0.8 µM
  relative viability: 0.411
HCC-78; first compound 2.53 µM
  relative viability: 0.49
LOU-NH91; first compound 0.08 µM
  relative viability: 0.94
LOU-NH91; first compound 0.253 µM
  relative viability: 0.836
LOU-NH91; first compound 0.8 µM
  relative viability: 0.982
LOU-NH91; first compound 2.53 µM
  relative viability: 1.02
NCI-H3122; first compound 0.08 µM
  relative viability: 0.983
NCI-H3122; first compound 0.253 µM
  relative viability: 0.972
NCI-H3122; first compound 0.8 µM
  relative viability: 1
NCI-H3122; first compound 2.53 µM
  relative viability: 0.963
NCI-H1944; first compound 0.08 µM
  relative viability: 1.19
NCI-H1944; first compound 0.253 µM
  relative viability: 1.12
NCI-H1944; first compound 0.8 µM
  relative viability: 1.1
NCI-H1944; first compound 2.53 µM
  relative viability: 1.15
UMC-11; first compound 0.08 µM
  relative viability: 1.11
UMC-11; first compound 0.253 µM
  relative viability: 0.944
UMC-11; first compound 0.8 µM
  relative viability: 1.03
UMC-11; first compound 2.53 µM
  relative viability: 1.05
CAL-12T; first compound 0.08 µM
  relative viability: 0.903
CAL-12T; first compound 0.253 µM
  relative viability: 0.876
CAL-12T; first compound 0.8 µM
  relative viability: 0.889
CAL-12T; first compound 2.53 µM
  relative viability: 0.634
RERF-LC-KJ; first compound 0.08 µM
  relative viability: 0.885
RERF-LC-KJ; first compound 0.253 µM
  relative viability: 0.859
RERF-LC-KJ; first compound 0.8 µM
  relative viability: 0.803
RERF-LC-KJ; first compound 2.53 µM
  relative viability: 0.892
NCI-H460; first compound 0.08 µM
  relative viability: 0.789
NCI-H460; first compound 0.8 µM
  relative viability: 0.803
NCI-H460; first compound 2.53 µM
  relative viability: 0.742
LC-2-ad; first compound 0.08 µM
  relative viability: 0.904
LC-2-ad; first compound 0.253 µM
  relative viability: 0.828
LC-2-ad; first compound 0.8 µM
  relative viability: 0.87
LC-2-ad; first compound 2.53 µM
  relative viability: 0.976
NCI-H1755; first compound 0.08 µM
  relative viability: 0.99
NCI-H1755; first compound 0.253 µM
  relative viability: 0.967
NCI-H1755; first compound 0.8 µM
  relative viability: 1.03
NCI-H1755; first compound 2.53 µM
  relative viability: 1.03
